# What was measured:
# lipid peroxidation = test: Lipid peroxidation inhibition (method of Ohkawa); format: biochemical
# [1] = tested on: Angiogenesis in CAM model; test: Neovascularization on the CAM (chick chorioallantoic membrane model of angiogenesis); format: in vivo, chicken; settings: 30 ug; for Percent inhibition of angiogenesis in CAM model at 30 ug: unit assumed
# Experimental: In vivo neovascularization was examined by the method previously described by Auerbach et al. (J. Dev. Biol. 41:391-394 (1974)). Ten-day old chicken embryos were purchased from Spafas, Inc. (Preston, Conn.) and were incubated at 37° C. with 55% relative humidity. In the dark, with the aid of a candling lamp, a small hole was punctured in the shell concealing the air sac with a hypodermic needle. A second hole was punctured in the shell on the broadside of the egg directly over an […] portion of the embryonic membrane, as observed during candling. An artificial air sac was created beneath the second hole by applying gentle vacuum to the first hole using a small rubber squeeze bulb. The vacuum caused the chorioallantoic membrane (CAM) to separate from the shell.
# A window, approximately 1.0 cm^2, was cut in the shell over the dropped CAM with the use of a small crafts grinding wheel (Dremel, Division of Emerson Electric Company Racine, Wis.). The window allowed direct access to the underlying CAM.
# A pro-angiogenic agent was added to induce new blood vessel branches on the CAM of 10-day old embryos. Filter disks of #1 filter paper (Whatman International, United Kingdom) were punched using a small puncher and were soaked in 3 mg/mL cortisone acetate (Sigma, St. Louis, Mo.) in a solution (95% ethanol and water). The disks were subsequently air dried under sterile conditions. The disks were then suspended in PBS (Phosphate Buffered Saline) and placed on growing CAMs. Filters treated with TP-H (TEMPOL-H) or TEMPOL and/or H2O2 or TP-H and/or bFGF or VEGF were placed on the first day of the 3-day incubation.
# For inducing angiogenesis, sterile filter disks were saturated with bFGF (1 μg/ml) (Life Technologies, Gaithersburg, Md.) or other pro-angiogenesis factors and control disks were saturated with PBS without Calcium and Magnesium. […]
# Using sterile forceps one filter/CAM was placed from the window. The window was sealed with Highland brand transparent tape.
# After 24-48 hr, 10-25 ul of test agent was injected intravenously or added topically into the CAM membrane. Eight-Ten eggs/treatment group were used.
# CAM tissue directly beneath filter disk was harvested from embryos treated 48 hours prior with compound or control. Tissues were washed three times with PBS. Sections were placed in a 35-mm petri dish (Nalge Nunc, Rochester, N.Y.) and examined under a SV6 stereomicroscope (Karl Zeiss, Thornwood, N.Y.) at 50× magnification.
# CAM sections from Petri dish were examined using SV6 stereomicroscope (Karl Zeiss) at 50× magnification. Digital images of CAM sections from Petri dish were collected using a 3-CCD color video camera system (Toshiba America, New York, N.Y.). These images were analyzed using Image-Pro Plus software (Media Cybernetics, Silver Spring, Md.).
# The number of branch points in blood vessels within the circular region superimposed to the area of a filter disk was counted for each section. After incubation at 37° C. with 55% relative humidity for 3 days, the CAM tissue directly beneath each filter disk was resected from control and treated CAM samples. Tissues were washed three times with PBS. Sections were placed in a 35-mm Petri dish (Nalge Nunc; Rochester, N.Y.) and were examined under a SV6 stereomicroscope (Karl Zeiss; Thornwood, N.Y.) at 50× magnification. Digital images of CAM sections adjacent to filters were collected using a 3-CCD color video camera system (Toshiba America; New York, N.Y.) and analyzed with the Image-Pro Plus software (Media Cybernetics; Silver Spring, Md.).
# The number of vessel branch points contained in a circular region equal to the area of a filter disk was counted for each section. Percent inhibition data are expressed as the quotient of the experimental value minus the negative control value divided by the difference between the positive control value and the negative control value. […]
# [2] = tested on: Human neuroblastoma SKN-SH cells, resistant to doxorubicin; test: Chemoresistance: cancer cell viability (MTT) in presence or absence of doxorubicin; format: cell-based; settings: compound 50 ug/mL, MTT
# Excerpt: A method for evaluating a compound's propensity to overcome cancer cell chemoresistance is described in “Caspase Inhibition Switches Doxorubicin-Induced Apoptosis To Senescence”, Abdelhadi Rebbaa, Xin Zheng, Pauline M Chou and Bernard L Mirkin, Oncogene (2003) 22, 2805-2811. Resistant human cancer cells to doxorubicin were selected by stepwise exposure to drug concentrations ranging from 10^−9 M-10^−6 M over 3 months. They were then subjected to treatment with the doxorubicin alone or in combination with hydroxylamine compounds 1-12, 16, 20, and 21 (Table 4). The cells were incubated with the drugs for 72 hours, and cell viability was measured by the MTT assay. Additionally, molecular pathways that might be associated with increased chemo-responsiveness with these compounds were investigated. p Cancer Cell Viability Data for certain hydroxylamines in the presence or absence of Doxorubicin is listed in Table 4.
# A method for evaluating a compound's propensity to overcome cancer cell chemoresistance is described in “Caspase Inhibition Switches Doxorubicin-Induced Apoptosis To Senescence”, Abdelhadi Rebbaa, Xin Zheng, Pauline M Chou and Bernard L Mirkin, Oncogene (2003) 22, 2805-2811. Human neuroblastoma SKN-SH cells (ATCC Cat. No. HTB-11) were cultured in Dulbecco's Modified Eagles Medium (DMEM; Gibco, Grand Island, N.Y.) supplemented with 10% fetal bovine serum (FBS; Sigma-Aldrich, St. Louis, Mo.) at 37° C. in a 95% Air/5% CO2 atmosphere. Resistant human cancer cells to doxorubicin were selected by stepwise exposure to drug concentrations ranging from 10^−9M-10^−6M over 3 months. They were then subjected to treatment with the doxorubicin alone or in combination with hydroxylamine compounds. The cells were incubated with the drugs for 72 hours, and cell viability was measured by the MTT assay. This consists of adding 10 μl/well of MTT (5 mg/ml solution) and incubation for 4 h at 37° C. The precipitate formed is then solubilized by addition of 100 μl of HCL 0.5 N/Isopropanol and incubation for 15 hours at 37° C. The optical density is measured at 570 nm and cell survival is estimated by comparison to untreated cells. Each point represents 4 wells data represent average ± SE. Additionally, molecular pathways that might be associated with increased chemo-responsiveness with these compounds were investigated.
# Cytotoxic activity of doxorubicin and hydroxylamine analogs were quantitatively determined by a colorimetric assay utilizing 3-(4,5-dimethyl-2-thiazolyl) 2,5-diphenyl tetrazolium bromide (MTT; Sigma-Aldrich, St. Louis, Mo.). Briefly, cells were seeded at 10^4 cells/well in 96-well plates and maintained in culture for 24 hours at 37° C. in DMEM supplemented with 10% FBS. Drugs were added to designated wells and cells were incubated for […], following which MTT (10 μL of 5 mg/ml solution) was added to each 100 μl well and incubated for 4 hours at 37° C. The cells were solubilized by incubation with 100 μl of HCl 0.5N in isopropanol for 15 hours at 37° C. The optical density of this solution was measured at 570 nm and the percentage of viable cells estimated by comparison with untreated control cells.
SMILES,Lipid Peroxidation % Inhibition (lipid peroxidation; 10 uM),CAM data % Inhibition [1],% Lipid Peroxidation inhibition (at 1 uM) (lipid peroxidation),Percent inhibition of angiogenesis in CAM model at 30 ug [1],"Mean OD (×10^−3), cancer cell viability ([2]; Dox. 10^−6 M present (+))","Mean OD (×10^−3), cancer cell viability ([2]; Dox. absent (−))",melting point,Lipid Peroxidation % Inhibition (lipid peroxidation; 100 uM)
"COc1cc2c(cc1O)CC[C@@H]1[C@@H]2CC[C@]2(C)[C@@H](O)CC[C@@H]12 [2-Methoxy estradiol, reference compound]",92.3%,92.3%,,,,,,
"COC1CC(C)(C)N(O)C(C)(C)C1.Cl [Compound 1, 1-hydroxy-4-methoxy-2,2,6,6-tetramethylpiperidine]",90.8%,,74.1%,89.9%,246.50 ×10^−3,524.75 ×10^−3,,
"CC1(C)CC(N2CCOCC2)CC(C)(C)N1O.Cl [Compound 3, 4-(2,2,6,6-tetramethylpiperidin-1-hydroxy-4-yl)morpholine]",77.8%,,,54.7%,289.50 ×10^−3,640.25 ×10^−3,,
"CC1(C)CC(O)C(C)(C)N1O (stereo not drawn) [Compound 7, 2,2,5,5-Tetramethyl-Pyrrolidine-1,3-diol]",82.9%,,,100%,241.25 ×10^−3,540.25 ×10^−3,,
"CC1(C)CC(NS(C)(=O)=O)CC(C)(C)N1O [Compound 10, 1-hydroxy-4-methanesulfonamido-2,2,6,6-tetramethylpiperidine]",85.8%,,,78.2%,250.00 ×10^−3,456.00 ×10^−3,,
"CC(C)(C)/[N+]([O-])=C/c1ccccc1 [Compound 17, α-phenyl-t-butyl nitrone, reference compound]",0.4%,,,,,,,
"CC1(C)CC(C(N)=O)C(C)(C)N1O (stereo not drawn) [Compound 24, 1-hydroxy-2,2,5,5-tetramethylpyrrolidine-3-carboxamide]",,,37.0%,65.8%,362.00 ×10^−3,1166.50 ×10^−3,,
CC1(C)C=C(CO)CC(C)(C)N1O.Cl [Compound 25],,,42.0%,62.9%,325.00 ×10^−3,1137.50 ×10^−3,,
"Cc1cc(O)c(O)cc1C(=O)NC1CC(C)(C)N(O)C(C)(C)C1.Cl [Compound 27, 4,5-dihydroxy-2-methyl-N-(1-hydroxy-2,2,6,6-tetramethylpiperidin-4-yl)benzamide]",,,53.4%,88.3%,403.75 ×10^−3,1038.33 ×10^−3,,
"CC(C)(C)c1cc(NC(=O)C2CC(C)(C)N(O)C(C)(C)C2)cc(C(C)(C)C)c1O.Cl [Compound 29, N-(3,5-di-tert-butyl-4-hydroxyphenyl)-1-hydroxy-2,2,6,6-tetramethylpiperidine-4-carboxamide]",,,92.3%,100%,105.75 ×10^−3,1328.00 ×10^−3,,
CC1(C)CC(CO)C(C)(C)N1O.Cl (stereo not drawn) [Compound 33],,,54.9%,77.8%,300.00 ×10^−3,1237.50 ×10^−3,,
"CC1(C)C=CCC(C)(C)N1O.Cl [Compound 35, 1-hydroxy-1,2,3,6-tetrahydro-2,2,6,6-tetramethylpyridine]",,,64.4%,,352.75 ×10^−3,1128.00 ×10^−3,,
"CC1(C)CC(OCc2ccccc2)CC(C)(C)N1O.Cl [Compound 43, 4-Benzyloxy-1-hydroxy-2,2,6,6-tetramethylpiperidine]",,,,85.5%,324.67 ×10^−3,1159.00 ×10^−3,181.5 °C (dec.),
"CC1(C)CC(Oc2nsnc2-c2ccccc2)CC(C)(C)N1O.Cl [Compound 44, 1-hydroxy-4-(4-phenyl-1,2,5-thiadiazol-3-yloxy)-2,2,6,6-tetramethylpiperidine]",,,,71.2%,13.25 ×10^−3,23.00 ×10^−3,220.8 °C (dec.),
"CC1(C)CC(O)(c2ccc(F)cc2)CC(C)(C)N1O.Cl [Compound 57, 4-(4-Fluorophenyl)-1-hydroxyl-2,2,6,6-tetramethylpiperidin-4-ol]",,,,100%,426.25 ×10^−3,1078.50 ×10^−3,220 °C (dec.),
"COc1cc(CNC2CC(C)(C)N(O)C(C)(C)C2)cc(OC)c1OC.Cl.Cl [Compound 58, N-(3,4,5-trimethoxybenzyl)-1-hydroxy-2,2,6,6-tetramethylpiperidin-4-amine]",,,,39%,291.50 ×10^−3,1207.00 ×10^−3,181 °C,
"O=C(O)c1cc(C(=O)O)c2c(n1)C(=O)C(=O)c1cc(C(=O)O)[nH]c1-2 [PQQ, pyrroloquinoline quinone, reference compound]",,,,,,,,93.7%
